This note sets out measurements from US5047337A, “Ceramide-glycanase” (priority 1987, dated 1991).

The subject of assay [1] is Annelid ceramide-glycanase. Description: Substrate specificity and pH optimum of annelid ceramide-glycanase from leeches and earthworms (general description). The settings on record: enzyme obtained from leeches and earthworms. In kind it is biochemical.
Assay [2] deals with earthworm ceramide-glycanase. Nature of the assay: Hydrolysis of glycolipids with earthworm enzyme (TLC). In kind it is biochemical, Lumbricus terrestris. The following applies: 37° C.; for release of ceramides from the glycolipid by earthworm ceramide-glycanase: one unit enzyme, 17 h, TLC; for hydrolysis of the glycolipid by earthworm ceramide-glycanase: 20 nmol substrate, pH 4.5, sodium taurodeoxycholate 400 μg, 16 hours. How it is done: The assay for ceramide-glycanase was carried out essentially according to the method described above in Example 3. […] Glycolipid substrates included LacCer, GbOse3 Cer, GT1, […] and GlcCer. […] The mixture was vortexed and centrifuged to separate the organic phase (lower) from the aqueous phase (upper). […] For the detection of the released oligosaccharide, the aqueous phase was analyzed by TLC using n-butanol:acetic acid:H2 O (2:1:1) as the developing solvent. […] The chromatograms are seen in FIGS. 5 and 6.

Assay [3] has as its system leech ceramide-glycanase. Nature of the assay: Hydrolysis of glycolipids with leech enzyme (TLC). In kind it is biochemical, leech (Hirudo medicinalis, Macrobdella decora). The following applies: 30 nmol substrate, pH 4.5, sodium taurodeoxycholate 200 μg, 37° C. How it is done: Assays were performed in 10×75 mm glass tubes. […] Glycolipid substrates included LacCer, GbOse3 Cer, GbOse4 Cer, GbOse5 Cer, nLcOse4 Cer, GM3, GM2, GM1, GD1a and GT1. After the mixture was incubated at 37° C. for a preset time, the reaction was terminated by adding 5 volumes of chloroform:methanol (2:1). The mixture was vortexed and briefly centrifuged to separate the organic phase (lower) from the aqueous phase (upper). Under this condition the enzyme protein became insoluble and stayed at the interface. […] For detection of the released oligosaccharide, the aqueous phase was analyzed by thin-layer chromatography using n-butanol:acetic acid:H2 O (2:1:1) as the developing solvent. […] The chromatograms are seen in FIGS. 2 and 3.

As for 3-sulfo-lactosyl ceramide, the “hydrolysis of the glycosphingolipid by annelid ceramide-glycanase” value (shortened to “hydrolysis of the glycosphingolipid”) in assay [1] was “hydrolyzes”.

On to GD1a, for which the “release of ceramides from the glycolipid by earthworm ceramide-glycanase” value (shortened to “release of ceramides from the glycolipid”) in assay [2] was “able to release ceramides”. In assay [3], the “release of intact oligosaccharide from the glycolipid by leech ceramide-glycanase” value (“release of intact oligosaccharide” below) is reported as “liberated an intact sialic acid containing oligosaccharide”. Besides, the “hydrolysis of the glycosphingolipid” value in assay [1] is reported as “hydrolyzes”.

On to Galα1→4GalCer [DiGalCer], for which the “hydrolysis of the glycolipid by earthworm ceramide-glycanase” value (from here on “hydrolysis of the glycolipid”) in assay [2] is given as “not hydrolyzed”.

Take galactosylceramide [GalCer]: the “hydrolysis of the glycolipid” value in assay [2] is given as “refractory”. Besides, in assay [1], the “hydrolysis of the glycosphingolipid” value is listed as “will not generally hydrolyze”.

Consider globopentaoyl-ceramicde [GbOse5 Cer], for which, in assay [2], the “release of ceramides from the glycolipid” value was “able to release ceramides”. Also, the “release of intact oligosaccharide” value in assay [3] is listed as “able to liberate the intact oligosaccharide”. The “hydrolysis of the glycosphingolipid” value in assay [1] was “hydrolyzes”.

For the substance globotetraosyl-ceramide [GbOse4 Cer], the “release of ceramides from the glycolipid” value in assay [2] was “able to release ceramides”. Further, the “release of intact oligosaccharide” value in assay [3] is “able to liberate the intact oligosaccharide”. The “hydrolysis of the glycosphingolipid” value in assay [1] was “hydrolyzes”.

Regarding globotriaosyl-ceramide [GbOse3 Cer], in assay [2], the “release of ceramides from the glycolipid” value is reported as “able to release ceramides”. In addition, in assay [3], the “release of intact oligosaccharide” value was “able to liberate the intact oligosaccharide”. Further, the “hydrolysis of the glycosphingolipid” value in assay [1] is “hydrolyzes”.

Consider glucosylceramide [GlcCer], for which the “hydrolysis of the glycolipid” value in assay [2] is recorded as “refractory”. Besides, the “hydrolysis of the glycosphingolipid” value in assay [1] is on record as “will not generally hydrolyze”.

Consider “lacto-N-neotetraoyl-ceramide [nLcOse4 Cer]”, for which the “release of intact oligosaccharide” value in assay [3] was “able to liberate the intact oligosaccharide”. In assay [1], the “hydrolysis of the glycosphingolipid” value is given as “hydrolyzes”.

As to lactosyl-ceramide [LacCer], in assay [2], the “hydrolysis of the glycolipid” value is reported as “hydrolyzed” and the “release of ceramides from the glycolipid” value is “able to release ceramides”. Further, the “release of intact oligosaccharide” value in assay [3] is recorded as “able to liberate the intact oligosaccharide”. The “hydrolysis of the glycosphingolipid” value in assay [1] is “hydrolyzes”.
